Several values for one entry are separate records, joined by “and”; a condition that tells them apart may be missing. Equal values may be shown once. Read-outs that look alike come from different tables or passages of the source.
What was measured:
[1] = tested on: HFGR-I P. falciparum (elevated proline homeostasis and PfcProRS^L482H); assay: P. falciparum ABS growth assay, SYBR Green, 72 h, HFGR-I parasites; format: cell-based, Plasmodium falciparum; conditions: HFGR-I
Method in brief: (§1)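 Growth inhibition of the resistant and induced Dd2 lines is measured over 72 h in triplicate dose-response, starting at 1% parasitemia and 1% hematocrit. SYBR Green 1 staining gives the fluorescence readout, normalized between 10 μM dihydroartemisinin and no-compound wells.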

HsProRS = HsProRS (Homo sapiens, UniProt P07814); assay: TR-FRET ligand displacement assay with tracer MAT379 (CoraFluor-1-Halo and anti-His6 antibody formats); format: binding; set-up: made in house; host or cells: E. coli SoluBL-21; conditions: for normalized TR-FRET signal (dose-response replicates): SI Fig 17a
HsProRS, sequence (P07814 996-1512): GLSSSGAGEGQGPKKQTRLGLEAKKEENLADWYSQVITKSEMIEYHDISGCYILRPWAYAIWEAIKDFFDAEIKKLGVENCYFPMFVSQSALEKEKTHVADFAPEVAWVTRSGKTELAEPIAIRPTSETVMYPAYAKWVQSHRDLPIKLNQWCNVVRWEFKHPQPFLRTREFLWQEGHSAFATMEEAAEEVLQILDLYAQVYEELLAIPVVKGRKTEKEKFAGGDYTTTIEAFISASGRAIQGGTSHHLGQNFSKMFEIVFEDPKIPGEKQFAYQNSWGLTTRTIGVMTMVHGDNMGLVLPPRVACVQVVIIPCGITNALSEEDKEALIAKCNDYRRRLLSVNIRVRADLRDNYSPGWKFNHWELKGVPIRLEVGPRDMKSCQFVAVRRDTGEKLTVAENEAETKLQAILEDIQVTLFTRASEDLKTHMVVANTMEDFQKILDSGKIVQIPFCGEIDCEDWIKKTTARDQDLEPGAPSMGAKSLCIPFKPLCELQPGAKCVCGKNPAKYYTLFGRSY

[2] = tested on: halofuginone-induced P. falciparum (elevated proline homeostasis); assay: P. falciparum ABS growth assay, SYBR Green, 72 h, halofuginone-induced parasites; format: cell-based, Plasmodium falciparum; conditions: for parasite growth, dose-response point: Halofuginone-Induced (HFG-Induced)
Method in brief: as §1

PfcProRS = molecular target: T1, PfcProRS (Plasmodium falciparum, UniProt Q8I5R7); format: binding; conditions: for Normalized response, dose-response replicates (SI Fig 14): replicates 1-3, listed as MAT345 (30)
T1 construct: made in house; host or cells: E. coli SoluBL-21
T1 sequence (Q8I5R7 249-746): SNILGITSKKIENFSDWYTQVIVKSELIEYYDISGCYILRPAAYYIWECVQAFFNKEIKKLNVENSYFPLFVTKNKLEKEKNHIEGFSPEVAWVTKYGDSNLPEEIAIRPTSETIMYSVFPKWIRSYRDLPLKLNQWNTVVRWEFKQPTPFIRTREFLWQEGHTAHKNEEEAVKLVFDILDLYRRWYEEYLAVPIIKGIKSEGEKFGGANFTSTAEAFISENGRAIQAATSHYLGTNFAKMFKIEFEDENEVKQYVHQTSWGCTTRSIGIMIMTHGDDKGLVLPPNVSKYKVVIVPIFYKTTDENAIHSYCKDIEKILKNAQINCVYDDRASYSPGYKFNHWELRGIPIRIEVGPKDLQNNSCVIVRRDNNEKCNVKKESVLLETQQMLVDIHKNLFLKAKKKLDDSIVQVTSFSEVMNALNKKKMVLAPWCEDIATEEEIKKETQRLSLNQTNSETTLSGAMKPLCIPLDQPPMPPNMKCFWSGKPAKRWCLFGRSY

P. falciparum Dd2-2D4 = assay: P. falciparum asexual blood stage (ABS) growth assay, SYBR Green, 72 h, wild-type parasites; format: cell-based, Plasmodium falciparum; conditions: Plasmodium falciparum, DD2; SI Fig 16b; values on -log scale; read-out: ABS - Dd2-2D4 (converted)
[3] = Log[inhibitor] (M) -5.000, series r16-r27

## O=C(NC1Cc2ccccc2C1)c1nccnc1NC(=O)N1CCC(CNC(=O)[C@@H]2CCCN2)CC1 [MAT345]
[1]; [3]
  parasite growth, dose-response point: 34 and 31 and 27
[1]; Log[inhibitor] (M) -5.408
  parasite growth, dose-response point: 80 and 82 and 78
[1]; Log[inhibitor] (M) -5.816
  parasite growth, dose-response point: 93 and 92 and 94
[1]; Log[inhibitor] (M) -6.222
  parasite growth, dose-response point: 97 and 95
[1]; Log[inhibitor] (M) -6.638
  parasite growth, dose-response point: 101 and 98 and 100
[1]; Log[inhibitor] (M) -7.046
  parasite growth, dose-response point: 98 and 100
[1]; Log[inhibitor] (M) -7.450
  parasite growth, dose-response point: 89 and 95 and 94
[1]; Log[inhibitor] (M) -7.854
  parasite growth, dose-response point: 93 and 91 and 94
[1]; Log[inhibitor] (M) -8.260
  parasite growth, dose-response point: 90 and 93 and 96
[1]; Log[inhibitor] (M) -8.699
  parasite growth, dose-response point: 97 and 94 and 92
[1]; Log[inhibitor] (M) -9.000
  parasite growth, dose-response point: 97 and 96 and 95
[1]; Log[inhibitor] (M) -9.488
  parasite growth, dose-response point: 95 and 102 and 96
HsProRS; HsProRS (KD [nM]) + proline, 100 μM proline, 250 nM MAT379
  Kd: 282 nM
HsProRS; HsProRS - best Kd, SI Fig 16a, values on -log scale
  Kd: 140 nM
HsProRS; Log[inhibitor] (M) -5.642
  normalised signal, dose-response point (Fig 4d): 3.24E-02 and 2.70E-02 and 2.05E-02
  normalized TR-FRET signal (dose-response replicates): 9.59E-02 and 6.70E-02 and 9.33E-02
HsProRS; Log[inhibitor] (M) -6.244
  normalised signal, dose-response point (Fig 4d): 1.89E-01 and 2.26E-01 and 2.85E-01
  normalized TR-FRET signal (dose-response replicates): 2.09E-01 and 2.42E-01 and 2.50E-01
HsProRS; Log[inhibitor] (M) -6.555
  normalised signal, dose-response point (Fig 4d): 3.68E-01 and 3.01E-01 and 3.10E-01
  normalized TR-FRET signal (dose-response replicates): 3.66E-01 and 3.52E-01 and 3.76E-01
HsProRS; Log[inhibitor] (M) -6.837
  normalised signal, dose-response point (Fig 4d): 6.02E-01 and 6.04E-01 and 4.91E-01
  normalized TR-FRET signal (dose-response replicates): 5.21E-01 and 5.37E-01 and 4.85E-01
HsProRS; Log[inhibitor] (M) -7.149
  normalised signal, dose-response point (Fig 4d): 6.76E-01 and 6.99E-01 and 6.39E-01
  normalized TR-FRET signal (dose-response replicates): 7.07E-01 and 6.82E-01 and 6.73E-01
HsProRS; Log[inhibitor] (M) -7.447
  normalised signal, dose-response point (Fig 4d): 8.48E-01 and 8.28E-01 and 9.00E-01
  normalized TR-FRET signal (dose-response replicates): 7.81E-01 and 8.42E-01 and 8.20E-01
HsProRS; Log[inhibitor] (M) -7.755
  normalised signal, dose-response point (Fig 4d): 9.14E-01 and 8.69E-01 and 1.05E+00
  normalized TR-FRET signal (dose-response replicates): 9.07E-01 and 9.27E-01 and 8.91E-01
HsProRS; Log[inhibitor] (M) -8.041
  normalised signal, dose-response point (Fig 4d): 9.90E-01 and 1.01E+00 and 9.87E-01
  normalized TR-FRET signal (dose-response replicates): 9.57E-01 and 9.29E-01 and 9.81E-01
HsProRS; Log[inhibitor] (M) -8.372
  normalised signal, dose-response point (Fig 4d): 1.02E+00 and 1.03E+00 and 9.36E-01
  normalized TR-FRET signal (dose-response replicates): 9.20E-01 and 9.69E-01 and 9.64E-01
HsProRS; Log[inhibitor] (M) -8.615
  normalised signal, dose-response point (Fig 4d): 9.70E-01 and 1.01E+00 and 1.11E+00
  normalized TR-FRET signal (dose-response replicates): 9.77E-01 and 1.00E+00 and 1.02E+00
HsProRS; Log[inhibitor] (M) -8.916
  normalised signal, dose-response point (Fig 4d): 9.07E-01 and 1.05E+00 and 9.01E-01
  normalized TR-FRET signal (dose-response replicates): 9.89E-01 and 9.48E-01 and 9.78E-01
HsProRS; Log[inhibitor] (M) -9.217
  normalised signal, dose-response point (Fig 4d): 9.78E-01 and 9.88E-01 and 9.92E-01
  normalized TR-FRET signal (dose-response replicates): 1.04E+00 (2×) and 1.05E+00
HsProRS; Log[inhibitor] (M) -5.041
  normalized TR-FRET signal (dose-response replicates): 4.56E-02 and 1.07E-02 and 1.68E-02
HsProRS; Log[inhibitor] (M) -5.342
  normalized TR-FRET signal (dose-response replicates): 5.17E-02 and 5.07E-02 and 8.15E-02
HsProRS; Log[inhibitor] (M) -5.943
  normalized TR-FRET signal (dose-response replicates): 1.49E-01 and 1.16E-01 and 1.17E-01
[2]; [3]
  parasite growth, dose-response point: 31 and 33
[2]; Log[inhibitor] (M) -5.408
  parasite growth, dose-response point: 83 and 82 and 78
[2]; Log[inhibitor] (M) -5.816
  parasite growth, dose-response point: 97 and 93 and 100
[2]; Log[inhibitor] (M) -6.222
  parasite growth, dose-response point: 102 and 100
[2]; Log[inhibitor] (M) -6.638
  parasite growth, dose-response point: 103 and 100 and 98
[2]; Log[inhibitor] (M) -7.046
  parasite growth, dose-response point: 102 and 103
[2]; Log[inhibitor] (M) -7.450
  parasite growth, dose-response point: 91 and 97
[2]; Log[inhibitor] (M) -7.854
  parasite growth, dose-response point: 96 and 99
[2]; Log[inhibitor] (M) -8.260
  parasite growth, dose-response point: 97 and 101
[2]; Log[inhibitor] (M) -8.699
  parasite growth, dose-response point: 95 and 97 and 96
[2]; Log[inhibitor] (M) -9.000
  parasite growth, dose-response point: 98 and 96
[2]; Log[inhibitor] (M) -9.488
  parasite growth, dose-response point: 97 and 99
[2]; vs wild-type Dd2-2D4
  fold decreased activity in halofuginone-induced and HFGR-I parasites: 20-to-40 fold
PfcProRS; Log[inhibitor] (M) -5.041
  Normalized response, dose-response replicates (SI Fig 14): 4.37E-03 and 8.51E-02 and 8.45E-02
PfcProRS; Log[inhibitor] (M) -5.342
  Normalized response, dose-response replicates (SI Fig 14): 1.11E-01 and 8.97E-02 and 2.09E-01
PfcProRS; Log[inhibitor] (M) -5.642
  Normalized response, dose-response replicates (SI Fig 14): 2.13E-01 and 1.76E-01 and 2.03E-01
PfcProRS; Log[inhibitor] (M) -5.943
  Normalized response, dose-response replicates (SI Fig 14): 2.11E-01 and 3.53E-01 and 2.89E-01
PfcProRS; Log[inhibitor] (M) -6.244
  Normalized response, dose-response replicates (SI Fig 14): 5.69E-01 and 4.73E-01 and 4.91E-01
PfcProRS; Log[inhibitor] (M) -6.555
  Normalized response, dose-response replicates (SI Fig 14): 6.49E-01 and 6.64E-01 and 6.15E-01
PfcProRS; Log[inhibitor] (M) -6.837
  Normalized response, dose-response replicates (SI Fig 14): 7.67E-01 and 7.12E-01 and 8.75E-01
PfcProRS; Log[inhibitor] (M) -7.149
  Normalized response, dose-response replicates (SI Fig 14): 8.93E-01 and 9.71E-01 and 9.69E-01
PfcProRS; Log[inhibitor] (M) -7.447
  Normalized response, dose-response replicates (SI Fig 14): 1.04E+00 and 1.05E+00 and 9.75E-01
PfcProRS; Log[inhibitor] (M) -7.755
  Normalized response, dose-response replicates (SI Fig 14): 9.28E-01 and 9.14E-01 and 8.72E-01
PfcProRS; Log[inhibitor] (M) -8.041
  Normalized response, dose-response replicates (SI Fig 14): 1.06E+00 and 9.79E-01 and 1.02E+00
PfcProRS; Log[inhibitor] (M) -8.372
  Normalized response, dose-response replicates (SI Fig 14): 9.49E-01 and 9.57E-01 and 1.06E+00
PfcProRS; Log[inhibitor] (M) -8.615
  Normalized response, dose-response replicates (SI Fig 14): 1.07E+00 and 9.05E-01 and 1.02E+00
PfcProRS; Log[inhibitor] (M) -8.916
  Normalized response, dose-response replicates (SI Fig 14): 1.03E+00 and 9.82E-01 and 1.08E+00
PfcProRS; Log[inhibitor] (M) -9.217
  Normalized response, dose-response replicates (SI Fig 14): 9.85E-01 and 1.06E+00 and 9.97E-01
PfcProRS; SI Fig 16a, values on -log scale
  PfcProRS -- best Kd: 7.445
P. falciparum Dd2-2D4
  EC50: 249 nM

— article PMC9403976, “Elucidating the path to Plasmodium prolyl-tRNA synthetase inhibitors that overcome halofuginone resistance” (Nature Communications, 2022)
